Source: ChEMBL document CHEMBL1201862, “PubChem BioAssay data set” (2004)
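Compound exposure: 48 hours, 5 concentrations, 96-well plates. GI50 marks 50% less growth.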 The source made the active and inactive calls. No stated cut-off is given here; in the data, active = GI50 up to about 1.1 µM and inactive = higher. Where a SMILES comes first, the peptide text is derived from it. The star is where a group is joined. Boc = CC(C)(C)OC(=O)*; OBn = c1ccc(CO*)cc1

Columns and labels:
Assay in all cases: NCI-60 cell line screen, 48 h
HL-60 = system: HL-60
RXF 393 = system: RXF 393
SK-OV-3 = system: SK-OV-3
SNB-75 = system: SNB-75
MCF7 = system: MCF7
RPMI-8226 = system: RPMI-8226
786-0 = system: 786-0
HT-29 = system: HT-29
OVCAR-4 = system: OVCAR-4
A498 = system: A498
COLO 205 = system: COLO 205
NCI-H226 = system: NCI-H226
OVCAR-3 = system: OVCAR-3
SR = system: SR
TK-10 = system: TK-10
HOP-92 = system: HOP-92
MDA-MB-435 = system: MDA-MB-435
HCT-15 = system: HCT-15
T47D = system: T47D
Malme-3M = system: Malme-3M

Structure (SMILES) | GI50 (HL-60) | GI50 (RXF 393) | GI50 (SK-OV-3) | GI50 (SNB-75) | GI50 (MCF7) | GI50 (RPMI-8226) | GI50 (786-0) | GI50 (HT-29) | GI50 (OVCAR-4) | GI50 (A498) | GI50 (COLO 205) | GI50 (NCI-H226) | GI50 (OVCAR-3) | GI50 (SR) | GI50 (TK-10) | GI50 (HOP-92) | GI50 (MDA-MB-435) | GI50 (HCT-15) [µM] | GI50 (T47D) | GI50 (Malme-3M)
CC1(C)OC(=S)N(c2ccccc2)C12C=Cc1cc3ccccc3cc1O2 (centres undefined) | 16.6 µM (inactive) | > 100 µM (inactive) | > 100 µM (inactive) | > 100 µM (inactive) | > 100 µM (inactive) | 92 µM (inactive) | > 100 µM (inactive) | > 100 µM (inactive) | > 100 µM (inactive) | > 100 µM (inactive) | > 100 µM (inactive) | > 100 µM (inactive) | > 100 µM (inactive) | 9.46 µM (inactive) | > 100 µM (inactive) | > 100 µM (inactive) | > 100 µM (inactive) | > 100 | > 100 µM (inactive) | –
CC(C)(C)OC(=O)NC(Cc1ccccc1)C(=O)NC(Cc1ccccc1)C(=O)NCC(=O)OCc1ccccc1 (stereo not drawn) (Boc-Phe-Phe-Gly-OBn; configuration not given here) | 19.7 µM (inactive) | – | 22.8 µM (inactive) | 37.8 µM (inactive) | 51.5 µM (inactive) | 15.4 µM (inactive) | 17.1 µM (inactive) | 16.7 µM (inactive) | 24.7 µM (inactive) | > 100 µM (inactive) | 29.8 µM (inactive) | – | 20 µM (inactive) | 18.4 µM (inactive) | 19.7 µM (inactive) | > 100 µM (inactive) | 8.36 µM (inactive) | 17.9 | 77.6 µM (inactive) | 44.5 µM (inactive)
CC(C)c1nc2c(Cl)c3ncccc3cc2[nH]c1=O | 50.4 µM (inactive) | > 100 µM (inactive) | > 100 µM (inactive) | 26.4 µM (inactive) | > 100 µM (inactive) | > 100 µM (inactive) | > 100 µM (inactive) | > 100 µM (inactive) | 67.8 µM (inactive) | > 100 µM (inactive) | > 100 µM (inactive) | 65.9 µM (inactive) | > 100 µM (inactive) | > 100 µM (inactive) | – | > 100 µM (inactive) | > 100 µM (inactive) | 74 | 70.5 µM (inactive) | > 100 µM (inactive)
CC(C)[Si](OC/C(=C/COC(C)(C)C)[C@H]1CC=C(C(=O)c2ccccc2N2CN(C)C(=O)N(C)C2)C1)(C(C)C)C(C)C | – | 4.02 µM (inactive) | 15.6 µM (inactive) | 14.1 µM (inactive) | 4.47 µM (inactive) | 6.05 µM (inactive) | 6.61 µM (inactive) | 5.75 µM (inactive) | 13.8 µM (inactive) | 19.7 µM (inactive) | 15.7 µM (inactive) | 14.6 µM (inactive) | 9.93 µM (inactive) | 2.14 µM (inactive) | 10.1 µM (inactive) | 9.73 µM (inactive) | 6.04 µM (inactive) | 12.3 | 7.73 µM (inactive) | 7.94 µM (inactive)
COC(=O)[C@@H](NC(=O)c1ccc(CNC(=O)/C(C)=C/c2ccccc2)cc1)C(C)C | – | 79.6 µM (inactive) | > 100 µM (inactive) | > 100 µM (inactive) | 42.2 µM (inactive) | 69.8 µM (inactive) | > 100 µM (inactive) | > 100 µM (inactive) | 56.8 µM (inactive) | > 100 µM (inactive) | 67.9 µM (inactive) | > 100 µM (inactive) | 27.4 µM (inactive) | > 100 µM (inactive) | > 100 µM (inactive) | > 100 µM (inactive) | 70 µM (inactive) | > 100 | 56.2 µM (inactive) | > 100 µM (inactive)
C/C(=N\Nc1nc2ccccc2n1C)c1cc2ccccc2cn1 | 0.0103 µM (active) | 0.229 µM (active) | 0.0339 µM (active) | 1.14 µM (inactive) | < 0.01 µM (active) | < 0.01 µM (active) | < 0.0173 µM (active) | < 0.0118 µM (active) | 0.0423 µM (active) | 0.194 µM (active) | < 0.01 µM (active) | 0.0448 µM (active) | – | < 0.0169 µM (active) | – | 0.321 µM (active) | 0.295 µM (active) | < 0.01 | < 0.0447 µM (active) | < 0.01 µM (active)
C/C=C\C1OC1(C)c1cc(=O)c2c(C)cc3c(c2o1)C(=O)c1c(O)c(C2CC(C)(N(C)C)C(OC(C)=O)C(C)O2)cc(C2CC(N(C)C)C(O)C(C)O2)c1C3=O (centres undefined) | – | < 0.00375 µM (active) | 0.00432 µM (active) | < 0.00375 µM (active) | < 0.00375 µM (active) | < 0.00375 µM (active) | < 0.00375 µM (active) | < 0.00375 µM (active) | 0.00461 µM (active) | 0.00875 µM (active) | < 0.00375 µM (active) | 0.00461 µM (active) | 0.00451 µM (active) | < 0.00375 µM (active) | 0.0113 µM (active) | 0.00593 µM (active) | 0.00449 µM (active) | 0.00404 | 0.00386 µM (active) | 0.0124 µM (active)
O=C(O)COCC(=O)N(CCOCCN(Cc1ccccc1)C(=O)COCC(=O)O)Cc1ccccc1 | > 100 µM (inactive) | > 100 µM (inactive) | > 100 µM (inactive) | – | > 100 µM (inactive) | > 100 µM (inactive) | > 100 µM (inactive) | > 100 µM (inactive) | – | > 100 µM (inactive) | > 100 µM (inactive) | > 100 µM (inactive) | > 100 µM (inactive) | > 100 µM (inactive) | > 100 µM (inactive) | < 0.01 µM (active) | > 100 µM (inactive) | > 100 | > 100 µM (inactive) | > 100 µM (inactive)
